pIC50: −log10 of the molar value. Where two headings read alike, the source gives them in different places.
Legend:
[1] = test system: HTLV-IIIB strain of HIV-1 (in C8166-45 cells); assay: Syncytia (human T-cell culture) Assay; format: cell-based; conditions: for pIC50: Human immunodeficiency virus 1, T-cell, C8166-45 cells, HTLV-IIIB strain, 72 hours, read-out: Syncytia Assay IC50
Description: Formation of syncytia is a feature of in vitro cultures of CD4+ T-cells infected with HIV-1. In this assay (1), T-cells are treated with a putative replication inhibiting compound and then infected with HIV-1. After incubation, the culture is checked for the formation of syncytia. The absence or reduction in the number of syncytia is used as a measure of the test compound's ability to inhibit HIV replication.
The target cells, designated C8166-45, are a fusion of umbilical blood lymphocytes and T-cells from leukemia-lymphoma patients and are established at an initial density of 5×10^4 per 90 μl in RPMI 1640 (+10% fetal bovine serum) culture medium in 96 well flat bottom plates. A selected amount of test compound, dissolved in DMSO, is included. 50 TCID50 's (the dose that results in induced effect in 50% of test cultures) of the HTLV-IIIB strain of HIV-1 (3) are inoculated into each culture. Control cultures receive compound or virus only.
The cultures are incubated for 72 hours (4), at 37° C. with 5% carbon dioxide, and then visually examined for the frequency and distribution of virus-induced giant cell syncytia. The percent inhibition by the test compound is determined by comparison with control values.

C8166-45 cell line = assay: MTT Assay (cytotoxicity); format: cell-based, human; conditions: C8166-45 cells, five days

Compound | pIC50 [1] | MTT Assay CC30 (C8166-45 cell line) [µM] | IC50 ([1]; Human immunodeficiency virus 1, IIIB, T-cell, 72 h, read-out: Syncytia Assay IC50 (μM)) [µM]
CCN1c2ncc(CCc3ccccc3)cc2C(=O)N(C)c2cccnc21 [Example 42, 5,11-Dihydro-11-ethyl-5methyl-8-(2-phenylethyl)-6H-dipyrido[3,2-b:2',3'-e][1,4]diazepin-6-one] | 7.52 | – | –
CCN1c2ncc(CCc3ccccc3)cc2C(=O)N(C)c2ccc(Cl)nc21 [Example 45, 2Chloro-5,11-dihydro-11-ethyl-5-methyl-8-(2-phenylethyl)-6H-dipyrido[3,2-b:2',3'-e][1,4]diazepin-6-one] | 8.00 | > 60 | –
CCN1c2ncc(CCOc3cc[n+]([O-])cc3)cc2C(=O)N(C)c2ccc(Cl)nc21 [Example 96, 2-chloro-5,11-dihydro-11-ethyl-5-methyl-8-[2-(N-oxo-pyrid-4-yloxy)ethyl]-6H-dipyrido[3,2-b:2',3'-e[]1,4]diazepin-6-one] | 7.52 | > 256 | –
CCN1c2ncc(COc3cccc(N)c3)cc2C(=O)N(C)c2ccc(Cl)nc21 [Example 99, 8-(3-aminophenyloxy)methyl-2-chloro-5,11-dihydro-11-ethyl-5-methyl-6H-dipyrido[3,2-b:2',3'-e][1,4]diazepin-6-one] | – | – | 0.02
CCN1c2ncc(COc3ccccc3)cc2C(=O)N(C)c2ccc(Cl)nc21 [Example 100, 2-chloro-5,11-dihydro-11-ethyl-5-methyl-8-(phenyloxy)methyl-6H-dipyrido[3,2-b:2',3'-e][1,4]diazepin-6-one] | 7.30 | > 60 | –
CCN1c2ncc(COc3ccc(O)cc3)cc2C(=O)N(C)c2ccc(Cl)nc21 [Example 105, 2-chloro-5,11-dihydro-11-ethyl-8-(4-hydroxyphenyloxy)methyl-5-methyl-6H-dipyrido[3,2-b:2',3'-e][1,4]diazepin-6-one] | – | 40 | –
CCN1c2ncc(COc3ccccc3O)cc2C(=O)N(C)c2ccc(Cl)nc21 [Example 106, 2-chloro-5,11-dihydro-11-ethyl-8-(2-hydroxyphenyloxy)methyl-5-methyl-6H-dipyrido[3,2-b:2',3'-e][1,4]diazepin-6-one] | – | > 60 | –
CCN1c2ncc(COc3cccnc3)cc2C(=O)N(C)c2ccc(Cl)nc21 [Example 107, 2-chloro-5,11-dihydro-11-ethyl-5-methyl-8-(3-pyridyloxy)methyl-6H-dipyrido[3,2-b:2',3'-e][1,4]diazepin-6-one] | – | > 256 | –
CCN1c2ncc(COc3cccc(OC)c3)cc2C(=O)N(C)c2ccc(Cl)nc21 [Example 108, 2-chloro-5,11-dihydro-11-ethyl-8-(3-methoxyphenyloxy)methyl-5-methyl-6H-dipyrido[3,2-b:2',3'-e][1,4]diazepin-6-one] | – | > 120 | –
CCN1c2ncc(COc3ccc(C(=O)OC)cc3)cc2C(=O)N(C)c2ccc(Cl)nc21 [Example 109, 2-chloro-5,11-dihydro-11-ethyl-8-(4-(methoxycarbonyl)phenyloxy)methyl-5-methyl-6H-dipyrido[3,2-b :2',3'-e][1,4]diazepin-6-one] | – | > 60 | –
CCN1c2ncc(COc3ccccc3C(=O)OC)cc2C(=O)N(C)c2ccc(Cl)nc21 [Example 110, 2-chloro-5,11-dihydro-11-ethyl-8-(2-(methyoxycarbonyl)phenyloxy)methyl-5-methyl-6H-dipyrido[3,2-b:2',3'-e][1,4]diazepin-6-one] | – | > 250 | –
CCN1c2ncc(COc3cccc(C(=O)OC)c3)cc2C(=O)N(C)c2ccc(Cl)nc21 [Example 111] | – | > 60 | –
CCN1c2ncc(COc3cccc(C(=O)O)c3)cc2C(=O)N(C)c2ccc(Cl)nc21 [Example 112, 2-chloro-5,11-dihydro-11-ethyl-8-(3-(carboxy)phenyloxy)methyl-5-methyl-6H-dipyrido[3,2-b:2',3'-e][1,4]diazepin-6-one] | – | 250 | –
CCN1c2ncc(COc3cccc(C(N)=O)c3)cc2C(=O)N(C)c2ccc(Cl)nc21 [Example 113, 8-(3-(aminocarbonyl)phenyloxy)methyl-2-chloro-5,11-dihydro-11-ethyl-5-methyl-6H-dipyrido[3,2-b:2',3'-e][1,4]diazepin-6-one] | – | 130 | –
CCN1c2ncc(COc3cccc4[nH]ccc34)cc2C(=O)N(C)c2ccc(Cl)nc21 [Example 114, 2-chloro-5,11-dihydro-11-ethyl-8-(4-indolyloxy)methyl-5-methyl-6H-dipyrido[3,2-b:2',3'-e][1,4]diazepin-6-one] | – | 30 | –
CCN1c2ncc(CN(C)c3ccccc3)cc2C(=O)N(C)c2ccc(Cl)nc21 [Example 116, 2-chloro-5,11-dihydro-11-ethyl-5-methyl-8-(N-methylphenylamino)methyl-6H-dipyrido[3,2-b:2',3'-e][1,4]diazepin-6-one] | – | > 60 | –
CCN1c2ncc(CSc3ccccc3)cc2C(=O)N(C)c2ccc(Cl)nc21 [Example 117, 2-chloro-5,11-dihydro-11-ethyl-5-methyl-8-(phenylthio)methyl-6H-dipyrido[3,2-b:2',3'-e][1,4]diazepin-6-one] | 8.30 | 60 | –
CCN1c2ncc(CS(=O)(=O)c3ccccc3)cc2C(=O)N(C)c2ccc(Cl)nc21 [Example 118, 2-chloro-5,11-dihydro-11-ethyl-5-methyl-8-(phenylsulfonyl)methyl-6H-dipyrido[3,2-b:2',3'e][1,4]diazepin-6-one] | – | 45 | –
CCN1c2ncc(CSc3ncccn3)cc2C(=O)N(C)c2ccc(Cl)nc21 [Example 121, 2-chloro-5,11-dihydro-11-ethyl-5-methyl-8-(pyrimidinyl-2-thio)methyl-6H-dipyrido[3,2-b:2',3'-e][1,4]diazepin-6-one] | – | 50 | –
CCN1c2ncc(CSc3[nH]cnc4nncc3-4)cc2C(=O)N(C)c2ccc(Cl)nc21 [Example 122, 2-chloro-5,11-dihydro-11-ethyl-5-methyl-8-(1H-pyrazolo[3,4-d]pyrimidine-4-ylthio)methyl-6H-dipyrido[3,2-b:2',3'-e][1,4]diazepin-6-one] | – | 25 | –
CCN1c2ncc(COc3ccncc3)cc2C(=O)N(C)c2ccc(Cl)nc21 [Example 124, 2-Chloro-5,11-dihydro-11-ethyl-5-methyl-8-(pyrid-4-yloxy)methyl-6H-dipyrido[3,2-b:2',3'-e][1,4]diazepin-6-one] | 8.22 | > 120 | –
CCN1c2ncc(COc3ccncc3)cc2C(=O)N(C)c2ccc(F)nc21 [Example 125, 5,11-dihydro-11-ethyl-2-fluoro-5-methyl-8-(pyrid-4-yloxy)methyl-6H-dipyrido[3,2-b:2',3'-e][1,4]diazepin-6-one] | – | 160 | –
CCN1c2ncc(COc3ccnc(C(F)(F)F)c3)cc2C(=O)N(C)c2ccc(Cl)nc21 [Example 126, 2-chloro-5,11-dihydro-11-ethyl-5-methyl-8-(2-trifluoromethylpyrid-4-yloxy)methyl-6H-dipyrido[3,2-b;2',3'-e][1,4]diazepin-6-one] | – | 64 | –
CCN1c2ncc(CCOc3ccncc3)cc2C(=O)N(C)c2cccnc21 [Example 128, 5,11-dihydro-11-ethyl-5-methyl-8-(pyrid-4-yloxy)ethyl-6H-dipyrido[3,2-b:2',3'-e][1,4]diazepin-6-one] | – | > 256 | –
